From patent publication US20240246968A1, “SMALL MOLECULE INHIBITORS OF KRAS G12C MUTANT” (Merck Sharp & Dohme LLC, priority 2021, published 2024)
pIC50: −log10 of the molar value.

Key:
MIA PaCa-2 cells = test: Growth inhibition activity on KRAS-G12C mutant cell line (MIA PaCa-2), CellTiter-Glo 3D; type: cell-based, human; details: Homo sapiens, MIA PaCa-2, 72 h, MIA PaCa-2, 3-day culture with compound
Summary of the method: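 Luminescence readout (CellTiter-Glo 3D) after 3 days of compound treatment at 37 °C, 5% CO2, 0.2% final DMSO, gave % growth inhibition versus no-compound wells, from which IC50 (nM) was derived; cells had been plated in 10% FBS RPMI1640 one day before dosing.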

[1] = molecular target: T1, interaction between recombinant K-Ras4B G12C mutant protein and cRAF RAS-binding domain (cRAF-RBD) (Homo sapiens, UniProt P01116, G12C); test: Inhibitory activity on interaction between KRAS G12C and cRAF (Alpha technology); type: biochemical; details: GMPPNP-bound KRAS G12C incubated with compound at 25° C. for 1 hour, then cRAF-RBD; Alpha signal
T1 construct: made in house; host or cells: E. coli
Summary of the method: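 Alpha readout of cRAF-RBD (aa 50-132) binding to KRAS G12C (aa 1-169) after 1.5 h RT, following 1 h, 25° C compound preincubation with GMPPNP-bound protein (pH 7.5 Tris, 1 mM MgCl2, TCEP, Tween 20). IC50 fitted from titrations, with GDP-bound KRAS as 100% and DMSO as 0% inhibition.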

[2] = molecular target: Gppcp-bound recombinant K-Ras4B G12C mutant protein (amino acids 1-169, C51S/C80L/C118S) (Homo sapiens, UniProt P01116, C118S/C51S/C80L/G12C); test: KRASG12C binding assay (LC-MS, compound binding rate); details: test compound final concentration 0.5 μM, 25° C., 1 hour
Summary of the method: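 Covalent adduct formation measured by deconvoluted intact-mass LC-MS after 1 h at 25 °C with compound at 0.5 μM final and 50 nM Gppcp-loaded KRAS G12C (residues 1-169, C51S/C80L/C118S). Buffer: TBS, 0.1 mM TCEP, 0.25 mM MgCl2, 50 μM Gppcp. Binding % = one-molecule adduct/(unbound + all adducts), binned A ≥80, B 60–80, C 40–60, D 20–40, E <20.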

Row | SMILES | pIC50 (MIA PaCa-2 cells) | pIC50 [1] | binding rate [2]
1 | COc1cc(-c2cncn2C)cc(Cl)c1-c1cccn2c(C(=O)c3cc(F)c(NC(=O)/C=C/CN[C@H]4CC[C@H](OC)CC4)c(F)c3)ccc12 [Example 42, (E)-N-(4-(8-(2-chloro-6-methoxy-4-(1-methyl-1H-imidazol-5-yl)phenyl)indolizine-3-carbonyl)-2,6-difluorophenyl)-4-(((1r,4r)-4-methoxycyclohexyl)amino)but-2-enamide] | 6.21 | 7.07 | A (A binding rate of 80% or more is rated “A”)
2 | C#Cc1cc2c(nc(C)n2C)c(Cl)c1-c1cccn2c(C(=O)c3cc(F)c(NC(=O)/C=C/CN[C@H]4CC[C@H](OC)CC4)c(F)c3)ccc12 [Example 43, (E)-N-(4-(8-(4-chloro-6-ethynyl-1,2-dimethyl-1H-benzo[d]imidazol-5-yl)indolizine-3-carbonyl)-2,6-difluorophenyl)-4-(((1r,4r)-4-methoxycyclohexyl)amino)but-2-enamide] | 6.80 | 7.06 | A (A binding rate of 80% or more is rated “A”)
3 | COc1cc2c(nc(C)n2C)c(F)c1-c1cccn2c(C(=O)c3cc(F)c(NC(=O)/C=C/CN[C@H]4CC[C@H](OC)CC4)c(F)c3)ccc12 [Example 44] | 7.64 | 7.66 | A (A binding rate of 80% or more is rated “A”)
4 | CO[C@H]1CC[C@H](NC/C=C/C(=O)Nc2c(F)cc(C(=O)c3c[nH]c4c(-c5cc6nc(C)n(C)c6cc5C(F)(F)F)cccc34)cc2F)CC1 [Example 45, (E)-N-(4-(7-(1,2-dimethyl-6-(trifluoromethyl)-1H-benzo[d]imidazol-5-yl)-1H-indole-3-carbonyl)-2,6-difluorophenyl)-4-(((1r,4r)-4-methoxycyclohexyl)amino)but-2-enamide] | 7.17 | 7.12 | A (A binding rate of 80% or more is rated “A”)
5 | COc1cc2c(nc(C)n2C)c(F)c1-c1cccn2c(C(=O)c3cc(F)c(NC(=O)/C=C/CNC(C)(C)C)c(F)c3)ccc12 [Example 46, (E)-4-(tert-butylamino)-N-(2,6-difluoro-4-(8-(4-fluoro-6-methoxy-1,2-dimethyl-1H-benzo[d]imidazol-5-yl)indolizine-3-carbonyl)phenyl)but-2-enamide] | 7.62 | 7.52 | A (A binding rate of 80% or more is rated “A”)
6 | CO[C@H]1CC[C@H](NC/C=C/C(=O)Nc2c(F)cc(C(=O)c3c(C)nc4c(-c5cc6nc(C)n(C)c6cc5C(F)(F)F)cccn34)cc2F)CC1 [Example 51, (E)-N-(4-(8-(1,2-dimethyl-6-(trifluoromethyl)-1H-benzo[d]imidazol-5-yl)-2-methylimidazo[1,2-a]pyridine-3-carbonyl)-2,6-difluorophenyl)-4-(((1r,4r)-4-methoxycyclohexyl)amino)but-2-enamide] | 6.92 | 7.24 | A (A binding rate of 80% or more is rated “A”)
7 | Cc1nc2c(-c3cc4nc(C)n(C)c4cc3C(F)(F)F)cccn2c1C(=O)c1cc(F)c(NC(=O)/C=C/CNC(C)(C)C)c(F)c1 [Example 52, (E)-4-(tert-butylamino)-N-(4-(8-(1,2-dimethyl-6-(trifluoromethyl)-1H-benzo[d]imidazol-5-yl)-2-methylimidazo[1,2-a]pyridine-3-carbonyl)-2,6-difluorophenyl)but-2-enamide] | 6.72 | 7.12 | A (A binding rate of 80% or more is rated “A”)
8 | COc1c(-c2cccn3c(C(=O)c4cc(F)c(NC(=O)/C=C/CNC(C)(C)C)c(F)c4)ccc23)c(C(F)(F)F)cc2c1nc(C)n2C [Example 53, (E)-4-(tert-butylamino)-N-(2,6-difluoro-4-(8-(4-methoxy-1,2-dimethyl-6-(trifluoromethyl)-1H-benzo[d]imidazol-5-yl)indolizine-3-carbonyl)phenyl)but-2-enamide] | 7.66 | 7.40 | A (A binding rate of 80% or more is rated “A”)
9 | CO[C@H]1C[C@H](NC/C=C/C(=O)Nc2c(F)cc(C(=O)c3ccc4c(-c5cc6nc(C)n(C)c6cc5C(F)(F)F)cccn34)cc2F)C1 [Example 54, (E)-N-(4-(8-(1,2-dimethyl-6-(trifluoromethyl)-1H-benzo[d]imidazol-5-yl)indolizine-3-carbonyl)-2,6-difluorophenyl)-4-(((1r,3r)-3-methoxycyclobutyl)amino)but-2-enamide] | 6.89 | 7.17 | A (A binding rate of 80% or more is rated “A”)
10 | Cc1nc2cc(-c3cccn4c(C(=O)c5cc(F)c(NC(=O)/C=C/CN[C@H]6CC[C@H](O)CC6)c(F)c5)ccc34)c(C(F)(F)F)cc2n1C [Example 55] | 7.06 | 7.39 | A (A binding rate of 80% or more is rated “A”)
11 | CO[C@H]1CC[C@H](NC/C=C/C(=O)Nc2c(F)cc(C(=O)c3ccc4c(-c5c(C)cc6c(nc(CO)n6C)c5Cl)cccn34)cc2F)CC1 [Example 58] | 7.16 | 7.46 | A (A binding rate of 80% or more is rated “A”)
12 | CO[C@H]1CC[C@H](NC/C=C/C(=O)Nc2c(F)cc(C(=O)c3ccc4c(-c5c(C)cc6c(nc(COC(=O)/C=C/CN[C@H]7CC[C@H](OC)CC7)n6C)c5Cl)cccn34)cc2F)CC1 [Example 59, (4-chloro-5-(3-(3,5-difluoro-4-((E)-4-(((1r,4r)-4-methoxycyclohexyl)amino)but-2-enamido)benzoyl)indolizin-8-yl)-1,6-dimethyl-1H-benzo[d]imidazol-2-yl)methyl (E)-4-(((1r,4r)-4-methoxycyclohexyl)amino)but-2-enoate] | 6.64 | 7.47 | A (A binding rate of 80% or more is rated “A”)
13 | Cc1nc2cc(-c3cccn4c(C(=O)c5cc(F)c(NC(=O)/C=C/CNC6(C)CC6)c(F)c5)ccc34)c(C(F)(F)F)cc2n1C [Example 62, (E)-N-(4-(8-(1,2-dimethyl-6-(trifluoromethyl)-1H-benzo[d]imidazol-5-yl)indolizine-3-carbonyl)-2,6-difluorophenyl)-4-((1-methylcyclopropyl)amino)but-2-enamide] | 6.85 | 7.18 | A (A binding rate of 80% or more is rated “A”)
14 | Cc1nc2cc(-c3cccn4c(C(=O)c5cc(F)c(NC(=O)/C=C/CNC6CCCCC6O)c(F)c5)ccc34)c(C(F)(F)F)cc2n1C (stereo not drawn) [Example 63, (E)-N-(4-(8-(1,2-dimethyl-6-(trifluoromethyl)-1H-benzo[d]imidazol-5-yl)indolizine-3-carbonyl)-2,6-difluorophenyl)-4-((2-hydroxycyclohexyl)amino)but-2-enamide] | 6.40 | 7.15 | A (A binding rate of 80% or more is rated “A”)
15 | CO[C@H]1CC[C@H](NC/C=C/C(=O)Nc2c(F)cc(C(=O)c3ccc4c(-c5c(C(F)F)cc6c(nc(C)n6C)c5Cl)cccn34)cc2F)CC1 [Example 64, (E)-N-(4-(8-(4-chloro-6-(difluoromethyl)-1,2-dimethyl-1H-benzo[d]imidazol-5-yl)indolizine-3-carbonyl)-2,6-difluorophenyl)-4-(((1r,4r)-4-methoxycyclohexyl)amino)but-2-enamide] | 7.60 | 7.34 | A (A binding rate of 80% or more is rated “A”)
16 | Cc1nc2cc(-c3cccn4c(C(=O)c5cc(F)c(NC(=O)/C=C/CNC6CCCCC6CO)c(F)c5)ccc34)c(C(F)(F)F)cc2n1C (stereo not drawn) [Example 65, (E)-N-(4-(8-(1,2-dimethyl-6-(trifluoromethyl)-1H-benzo[d]imidazol-5-yl)indolizine-3-carbonyl)-2,6-difluorophenyl)-4-((2-(hydroxymethyl)cyclohexyl)amino)but-2-enamide] | 6.72 | 7.12 | A (A binding rate of 80% or more is rated “A”)
17 | Cc1nc2cc(-c3cccn4c(C(=O)c5cc(F)c(NC(=O)/C=C/CNC6CCOC(C)(C)C6)c(F)c5)ccc34)c(C(F)(F)F)cc2n1C (stereo not drawn) [Example 66] | 7.01 | 7.15 | A (A binding rate of 80% or more is rated “A”)
18 | CO[C@H]1CC[C@H](NC/C=C/C(=O)Nc2c(F)cc(C(=O)c3ccc4c(-c5c(C(F)(F)F)cc6c(nc(CO)n6C)c5Cl)cccn34)cc2F)CC1 [Example 67, (E)-N-(4-(8-(4-chloro-2-(hydroxymethyl)-1-methyl-6-(trifluoromethyl)-1H-benzo[d]imidazol-5-yl)indolizine-3-carbonyl)-2,6-difluorophenyl)-4-(((1r,4r)-4-methoxycyclohexyl)amino)but-2-enamide] | 7.29 | 7.42 | A (A binding rate of 80% or more is rated “A”)
19 | CO[C@H]1CC[C@H](NC/C=C/C(=O)Nc2c(F)cc(C(=O)c3ccc4c(-c5c(C(F)(F)F)cc6c(nc(CF)n6C)c5Cl)cccn34)cc2F)CC1 [Example 68] | 7.17 | 7.11 | A (A binding rate of 80% or more is rated “A”)
